Legend:
[1] = test system: γ-aminobutyric acid type A (GABAA) receptor; conditions: at low nanomolar concentrations; cited from earlier work
socially isolated mice = assay: Social-isolation stress mice: brain ALLO content and barbiturate-induced sleeping time; type: in vivo; conditions: single injection 2.6 μmol/Kg i.p.
[2] = test system: ALLO content in rat brain slices; assay: ALLO content in vitro in rat brain slices; type: cell-based
Description: Presumably, this effect was mediated via an inhibition of the oxidative function of the 3α-HSOR by the FGIN-1 drugs. Such an effect would lead to the accumulation of ALLO, since the reverse step—the reduction of 5α-DHP to ALLO was not affected by these compounds. Similar results were obtained in brain slices of ADX/CX rats.

brain ALLO content = assay: Brain ALLO content after fluoxetine in normal and ADX/CX male rats; type: in vivo, rat
[3] = test system: ALLO in the cerebrospinal fluid (CSF); assay: CSF neurosteroid content in patients with unipolar major depression after SSRI treatment; type: in vivo, human; conditions: 8-10 weeks of treatment

SMILES | modulation of GABAA receptor function [1] | brain content of ALLO and barbiturate-sleeping time (socially isolated mice; group-housed mice) | barbiturate-sleeping time (socially isolated mice; socially isolated mice) | brain content of ALLO (socially isolated mice; socially isolated mice) | ALLO content in rat brain slices [2] | increase of brain ALLO content (brain ALLO content; 5-20 mg/kg, i.p., normal and ADX/CX male rats) | brain ALLO content after fluoxetine (brain ALLO content; ADX/CX rats, increase from 2 pmol/g) | dose and time dependence of effect on brain ALLO content (brain ALLO content; also after protracted fluoxetine treatment) | brain ALLO content after fluoxetine (brain ALLO content; normal rats, increase from 3 pmol/g tissue) | brain region specificity of ALLO increase (brain ALLO content; rat brain regions) | concentration of ALLO in CSF [3]
CC(=O)[C@H]1CC[C@H]2[C@@H]3CC[C@H]4C[C@H](O)CC[C@]4(C)[C@H]3CC[C@]12C [ALLO, 5α-pregnan-3α-ol-20-one] | positively modulates |  |  |  |  |  |  |  |  |  | 
CNCCC(Oc1ccc(C(F)(F)F)cc1)c1ccccc1 (centres unmarked) [fluoxetine] |  | without altering | normalized | normalized | could increase ALLO content | 2-3 fold | 8 pmol/g | dose- and time-dependent | 9 pmol/g tissue | most pronounced ALLO increase occurring in the olfactory bulb, cortex, and hippocampus | significantly increased
